Measurements: US10406091B2, “Skin anti-ageing composition” (Conopco, Inc., priority 2011, dated 2019)

System: interleukin 8 (IL-8)
Test: IL-8 ELISA on supernatant of TNF alpha-challenged primary epidermal keratinocytes pre-treated with actives
Format: cell-based, human
Settings: 24 h pre-treatment, then 10 ng/ml TNF alpha 24 h
Experimental: An in-vitro model has been developed to investigate the impact of an inflammatory stimulus on epidmeral keratinocytes, in which: • a. Cells are grown in 24-well (2.0 cm^2) plates. • b. The cells are pre-treated with active ingredient of interest for 24 hours then challenged with an inflammatory stimulus, 10 ng/ml tumour necrosis factor alpha (TNFa) in addition to the active ingredient, for a further 24 hours. • c. Cell culture supernatant and cell lysates were harvested at 24 hours (t24) post-TNFa treatment. • d. All cell culture supernatant was assayed for IL-8 as a measure of inflammatory response and cell culture lysate was assayed for total protein (BCA), as a measure of cytotoxicity.
Primary human epidermal keratinocyte cells were cultured and passaged in fully supplemented KGM-Gold media (Lonza) with 70 μM calcium added. Cells were routinely plated out in 24-well tissue culture dishes, at a seeding density of ˜50,000 cells/well in 1 ml medium/well for 24 hours, and incubated at 37° C. in 5% CO2.
Test solutions were prepared in KGM-Gold media without supplemented hydrocortisone and antibiotic. Media was removed from the cells and test solutions were added for 24 hours. The epidermal keratinocytes were then stimulated with an inflammatory challenge for 24 hours using 10 ng/ml TNFa in the presence of the test solutions. The treated supernatant (cell culture supernatant) was removed and stored at −20° C. prior to IL-8 analysis.
The epidermal keratinocytes were washed with 1 ml of Dulbecco's phosphated buffer solution (PBS) and 250 μl of ice cold lysis buffer (1% NP-40, 0.1% sodium deoxycholate, 0.1% sodium dodecyl sulphate, 6 mM sodium chloride and 0.05 M Tris at pH 7.6) containing protease inhibitor cocktail (Roche, Complete™ mini tablets 1 836 170) was added. The lysates were clarified by scraping the samples with a 1 ml syringe plunger and passing through an Acrowell™ filter plate (Pall) using an Acroprep™ vacuum manifold (Pall) into a 96 well microwell plate (Sterilin). The clarified lysates were stored at −20° C. until total protein estimation.
The total protein concentration of each clarified cell lysate was measured using the Pierce BCA protein assay kit so that the response to effect of the test substances could be normalised to ug protein. A set of eight standard solutions ranging from 0 to 1200 μg/ml protein was prepared from the supplied 2 mg/ml bovine serum albumin (BSA) stock solution. 10 μl of standard or cell lysate was added to duplicate wells of a flat-bottomed 96-well plate. The reagent solution was prepared according to the kit instructions from 50 parts reagent A and 1 part reagent B. 200 μl of the final reagent was added to each well. The plate was mixed, covered and incubated at 37° C. for 30 minutes and absorbance read at 562 nm. A protein standard curve was constructed and used to determine the protein concentration of each cell lysate.
The IL-8 concentration of each cell culture supernatant was assayed using the DuoSet Human IL-8 ELISA assay (R&D Systems DY208) according to the manufacturer's instructions. The IL-8 capture antibody was bound to the microtitre plate (Greiner) overnight at room temperature in phosphate buffered saline and removed by washing three times was wash buffer (0.05% Tween 20 in PBS) on an automatic plate washer. The plate was blocked with 300 μl of 1% bovine serum albumin (BSA) in phosphate buffered saline for 1 hour at room temperature and washed 3 times in wash buffer. Seven IL-8 standards were prepared in reagent diluent (0.1% BSA, 0.05% Tween 20 in PBS) at concentrations ranging from […]. 100 μl of cell culture supernatant or standard was added to duplicate wells and incubated at room temperature for 2 hours. The plate was washed 3 times with wash buffer before 100 μl of IL-8 detection antibody diluted in reagent diluent was added and incubated for 2 hours at room temperature. […]

Row | SMILES | IL-8 (pg/μg protein) (sterol alone 1 uM) | IL-8 (pg/μg protein) (sterol alone 5 uM) | IL-8 (pg/μg protein) (sterol alone 10 uM) | IL-8 (pg/μg protein) (myricetin alone 0.5 ug/ml) | IL-8 (pg/μg protein) (myricetin alone 1 ug/ml) | IL-8 (pg/μg protein) (myricetin alone 2.5 ug/ml)
1 | CC(C)[C@@H](C)/C=C/[C@@H](C)[C@H]1CC[C@H]2[C@@H]3CC=C4C[C@@H](O)CC[C@]4(C)[C@H]3CC[C@]12C [Brassicasterol] | 3.394 pg/μg protein | 4.448 pg/μg protein | 4.862 pg/μg protein |  |  | 
2 | CC(C)=CCC[C@@H](C)[C@H]1CC[C@H]2[C@@H]3CC=C4C[C@@H](O)CC[C@]4(C)[C@H]3CC[C@]12C [Desmosterol] | 4.756 pg/μg protein | 4.799 pg/μg protein | 4.711 pg/μg protein |  |  | 
3 | O=c1c(O)c(-c2cc(O)c(O)c(O)c2)oc2cc(O)cc(O)c12 [Myricetin] |  |  |  | 3.874 pg/μg protein | 2.741 pg/μg protein | 1.784 pg/μg protein
4 | CC[C@H](/C=C/[C@@H](C)[C@H]1CC[C@H]2[C@@H]3CC=C4C[C@@H](O)CC[C@]4(C)[C@H]3CC[C@]12C)C(C)C [Stigmasterol] | 4.638 pg/μg protein | 3.87 pg/μg protein | 4.964 pg/μg protein |  |  | 
